Patent US11426375B2, “Substituted bisphenyl butanoic ester derivatives as NEP inhibitors” (NOVARTIS AG, priority 2019, dated 2022)
Read-outs that look alike come from different tables or passages of the source.

Legend:
[1] = parameters: species or system Sprague Dawley rats; conditions: rat, in vivo, po, 10 mg/kg; for LBQ657 concentration-time profile / conversion to LBQ657: male, Sprague-Dawley
Description: A parallel study design consisting of four groups with three animals per group was conducted to examine the pharmacokinetic properties of the compounds of the present disclosure.
The drugs were administered to each group are as follows: compound I-1 (Group 1), compound I-2 (Group 2), compound I-3 (Group 3), and AHU377 (sacubitril) (Group 4). Each animal received a single 10 mg/kg (5 ml/kg) oral gavage dose of the specified study drug. The animal weights ranged from […] at the beginning of the study. Compound I-1, compound I-2, compound I-3, and AHU377 were formulated in 0.5% methylcellulose (400 cp) and 0.1% Tween 80 (w,v) in water was used as the vehicle. Water bath sonication was applied to facilitate dispersing for all four study drugs. Blood samples for pharmacokinetics analysis were collected at t=0.25, 0.5, 1, 2, 4, 8, and 24 hours (±5%) post dose administration. Plasma was prepared by collecting whole blood samples into tubes containing EDTA and NaF (final concentrations: ˜1 mg/mL (K2EDTA) and ˜2 mg/mL (NaF)). These tubes were kept in an ice bath prior to centrifugation at approximately 2,000 rcf for 10 minutes at approximately 5° C. To each resultant plasma sample, 50% phosphoric acid (v/v) was added to achieve a final concentration of 1% (v,v).
(§1) [^13C4]-LBQ657 was added as an internal standard to the pharmacokinetic (PK) samples and calibration standards prior to analysis by LC-MS/MS. The LC-MS system consisted of an API6500+ mass spectrometer coupled to an Agilent 1290 HPLC system equipped with a CTC Pal autosampler. The mass spectrometer was operated in the positive ion mode with a TESI ion source.

[2] = Aqueous solubility by visual observation; type: physicochemical; conditions: water; based on visual observation
Description: The solubility value was more than about 500 mg/ml based on visual observation.

[3] = parameters: species or system Cynomolgus Monkeys; conditions: cynomolgus monkey, in vivo, po, 10 mg/kg
Description: A cross-over study design consisting of two groups with two animals per group was conducted to examine the pharmacokinetic properties of compound I-1 of the present disclosure.
Compound I-1 and AHU377 were administered to each group as follows: compound I-1 on Day 0 followed by AHU377 on Day 2 (Group 1), AHU377 on Day 0 followed by compound I-1 on Day 2 (Group 2). Each animal received a single 10 mg/kg (5 ml/kg) oral gavage dose of the specified study drug on the specified day. The animals were 2.5 to 3.5 years of age and weighed between 3.1 and 4.3 kg at the beginning of the study. Both compounds were formulated in 0.5% methylcellulose (400 cp) and 0.1% Tween 80 (w,v) in water. Blood samples for pharmacokinetics analysis were collected at t=0, 0.25, 0.5, 1, 2, 4, 8, 24 and 48 hours post dose on Day 0 and Day 2. Plasma was prepared by collecting whole blood samples into tubes containing K2EDTA and NaF (final concentrations: ˜1 mg/mL (K2EDTA) and ˜2 mg/mL (NaF)). These tubes were kept in an ice bath prior to centrifugation at approximately 2,000 rcf for 10 minutes at approximately 5° C. To each resultant plasma sample (target volume 200 μL), 4 μL of 50% phosphoric acid (v/v) was added.
as §1, with “mode.” for “mode with a TESI ion source.”

[4] = type: physicochemical; conditions: for degradation in solution: 1 day
Description: It was stable at pH of 4.7 and pH of 6.8 up to 70° C. for 3 days.

[5] = Hygroscopicity, weight gain at 90% RH; type: physicochemical; conditions: after exposure to 90% RH
Description: The weight gain of compound I-1 after exposure to 90% RH (relatively humidity) was 0.34%, while that of AHU377 under the same conditions was 3.4%. […] On the other hand, AHU377 is a wax-like solid, which needs to be properly processed before further pharmaceutical processing such as weighing, dispensing and filling.

Row | SMILES | LBQ657 concentration-time profile [1] | conversion to LBQ657 [1] | tolerability [1] | solubility [2] [mg/mL] | tolerability [3] | degradation in solution ([4]; pH 2) [%] | degradation in solution ([4]; pH 4.7) [%] | solution stability under acidic conditions ([4]; pH 2) | weight gain (hygroscopicity) [5] [%]
1 | CCOC(=O)[C@H](C)C[C@@H](Cc1ccc(-c2ccccc2)cc1)NC(=O)CCC(=O)N[C@@H](CCCCN)C(=O)OC(C)(C)C [Compound I-3, Tert-butyl (4-(((2S,4R)-1-([1,1′-biphenyl]-4-yl)-5-ethoxy-4-methyl-5-oxopentan-2-yl)amino)-4-oxobutanoyl)-L-lysinate] | flattened relative to AHU377 | nearly complete conversion to LBQ657 | very well tolerated | – | – | – | – | – | –
2 | CCOC(=O)[C@H](C)C[C@@H](Cc1ccc(-c2ccccc2)cc1)NC(=O)CCC(=O)N[C@@H](CCCCN)C(=O)O [Compound I-2, (4-(((2S,4R)-1-([1,1′-biphenyl]-4-yl)-5-ethoxy-4-methyl-5-oxopentan-2-yl)amino)-4-oxobutanoyl)-L-lysine] | flattened relative to AHU377 | nearly complete conversion to LBQ657 | very well tolerated | > 500 | – | – | – | – | –
3 | CCOC(=O)[C@H](C)C[C@@H](Cc1ccc(-c2ccccc2)cc1)NC(=O)CCC(=O)O [AHU377, 4-(((2S,4R)-1-([1,1′-biphenyl]-4-yl)-5-ethoxy-4-methyl-5-oxopentan-2-yl)amino)-4-oxobutanoic acid] | – | – | very well tolerated | – | well tolerated | 21.49 | 2.63 | unstable | 3.4
